In data set [1] the test system is Mus musculus. As to the kind of experiment: Anti-inflammatory activity in DSS-induced C57BL/6 mouse model of inflammatory bowel disease assessed as increase in STAT3 phosphorylation in colon tissue at 5 to 20 mg/kg, po measured after 10 days by western blot analysis. The following applies: dose 5-20 mg/kg, time 10.0 day. Type of data set: functional, organism-based. (In general: Immunoblotting shows a protein as a band on a membrane.)

A short description of data set [2]: Acute toxicity in 12 hr fasted ICR mouse assessed as body weight loss at 2000 mg/kg, po measured daily for 7 days. The format is organism-based. As to conditions: in vivo, 168 h, time 7 day.
In data set [3] the test system is Mus musculus. As to the kind of experiment: Anti-inflammatory activity in C57BL/6 mouse model of inflammatory bowel disease assessed as reduction in DSS-induced epithelium destruction in colon tissue at 5 to 20 mg/kg, po daily measured after 10 days by hematoxylin and eosin staining based histopathological analysis. The format is functional, organism-based. The following applies: dose 5-20 mg/kg, time 10.0 day.

Data set [4] deals with Mus musculus. Briefly: Anti-inflammatory activity in C57BL/6 mouse model of inflammatory bowel disease assessed as increase in DSS-induced IL-10 levels in colon tissue administered orally daily measured after 10 days by ELISA method. Type of data set: functional, organism-based. As to conditions: dose 5-20 mg/kg, route po, time 10.0 day.
For data set [5], the target named is Cyclin-dependent kinase 8 (Homo sapiens) (UniProt P49336). As to the kind of experiment: Binding affinity to CDK8 in human HCT-116 cells assessed as thermal stability at 49 degC treated for 4 hrs followed by compound washout by CETSA assay. Type of data set: cell-based. The following applies: dose 0.5-10 µM, DDE = dose-dependent effect.
Chain of Cyclin-dependent kinase 8 (Homo sapiens) (P49336 whole entry): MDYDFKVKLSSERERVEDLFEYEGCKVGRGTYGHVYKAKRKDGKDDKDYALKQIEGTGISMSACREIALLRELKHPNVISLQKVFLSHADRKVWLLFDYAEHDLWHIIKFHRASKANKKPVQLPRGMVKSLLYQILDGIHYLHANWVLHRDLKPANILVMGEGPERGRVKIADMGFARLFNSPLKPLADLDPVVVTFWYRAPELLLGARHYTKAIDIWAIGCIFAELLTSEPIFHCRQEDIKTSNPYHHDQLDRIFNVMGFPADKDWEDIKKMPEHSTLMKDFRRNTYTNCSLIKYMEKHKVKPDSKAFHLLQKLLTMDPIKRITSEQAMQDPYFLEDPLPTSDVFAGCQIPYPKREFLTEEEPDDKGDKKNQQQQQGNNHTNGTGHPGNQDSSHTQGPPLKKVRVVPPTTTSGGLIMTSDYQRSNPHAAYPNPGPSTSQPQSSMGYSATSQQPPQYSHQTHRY
The subject of data set [6] is Mus musculus. As to the kind of experiment: Anti-inflammatory activity in C57BL/6 mouse model of inflammatory bowel disease assessed as reversal of DSS-induced TLR7 expression in colon tissue at 5 to 20 mg/kg, po measured after 10 days by western blot analysis. The format is functional, organism-based. The following applies: dose 5-20 mg/kg, time 10.0 day.
Data set [7] deals with Myeloid differentiation primary response protein MyD88 (Mus musculus) (UniProt P22366). As to the kind of experiment: Inhibition of MyD88 expression in R848-stimulated mouse BMDC cells at 1 to 4 uM treated for 2 hrs followed by R848 stimulation for 12 hrs by western blot analysis. Type of data set: cell-based. As to conditions: dose 1-4 µM, time 14.0 hrs, DDE = dose-dependent effect.
Chain of Myeloid differentiation primary response protein MyD88 (Mus musculus) (P22366 whole entry): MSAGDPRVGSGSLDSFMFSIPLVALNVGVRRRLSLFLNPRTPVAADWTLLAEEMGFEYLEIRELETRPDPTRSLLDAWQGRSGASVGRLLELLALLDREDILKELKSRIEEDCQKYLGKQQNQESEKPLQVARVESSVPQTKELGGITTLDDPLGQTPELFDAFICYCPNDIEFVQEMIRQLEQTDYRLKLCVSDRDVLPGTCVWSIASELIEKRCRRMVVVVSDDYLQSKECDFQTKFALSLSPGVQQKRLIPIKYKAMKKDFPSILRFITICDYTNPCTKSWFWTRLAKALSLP

Data set [8] in a line: AUC (0 to infinity) in Sprague-Dawley rat at 10 mg/kg, po measured for 3 to 1440 mins by HPLC analysis. The format is ADME, organism-based. The following applies: in vivo.
The subject of data set [9] is Mus musculus. Briefly: Anti-inflammatory activity in C57BL/6 mouse model of inflammatory bowel disease assessed as decrease in DSS-induced JNK phosphorylation in colon tissue at 5 to 20 mg/kg, po measured after 10 days by western blot analysis. The format is functional, organism-based. The following applies: dose 5-20 mg/kg, time 10.0 day, DDE = dose-dependent effect.

Data set [10] can be described thus: Half life in Sprague-Dawley rat at 10 mg/kg, po measured for 3 to 1440 mins by HPLC analysis. Type of data set: ADME, organism-based. The following applies: in vivo, time 3-1440 min.
Data set [11] is described as follows: Cmax in Sprague-Dawley rat at 5 mg/kg, iv measured for 3 to 1440 mins by HPLC analysis. The format is ADME, organism-based. As to conditions: in vivo.
Data set [12] has as its system Mus musculus. As to the kind of experiment: Anti-inflammatory activity in C57BL/6 mouse model of inflammatory bowel disease assessed as decrease in DSS-induced neutrophil infiltration in colon tissue by measuring MPO activity at 5 to 20 mg/kg, po administered for 10 days. The format is functional, organism-based. As to conditions: dose 5-20 mg/kg, time 10.0 day, DDE = dose-dependent effect.

In data set [13] the target is T1, Toll-like receptor 7 (Mus musculus) (UniProt P58681).
T1 sequence (whole entry): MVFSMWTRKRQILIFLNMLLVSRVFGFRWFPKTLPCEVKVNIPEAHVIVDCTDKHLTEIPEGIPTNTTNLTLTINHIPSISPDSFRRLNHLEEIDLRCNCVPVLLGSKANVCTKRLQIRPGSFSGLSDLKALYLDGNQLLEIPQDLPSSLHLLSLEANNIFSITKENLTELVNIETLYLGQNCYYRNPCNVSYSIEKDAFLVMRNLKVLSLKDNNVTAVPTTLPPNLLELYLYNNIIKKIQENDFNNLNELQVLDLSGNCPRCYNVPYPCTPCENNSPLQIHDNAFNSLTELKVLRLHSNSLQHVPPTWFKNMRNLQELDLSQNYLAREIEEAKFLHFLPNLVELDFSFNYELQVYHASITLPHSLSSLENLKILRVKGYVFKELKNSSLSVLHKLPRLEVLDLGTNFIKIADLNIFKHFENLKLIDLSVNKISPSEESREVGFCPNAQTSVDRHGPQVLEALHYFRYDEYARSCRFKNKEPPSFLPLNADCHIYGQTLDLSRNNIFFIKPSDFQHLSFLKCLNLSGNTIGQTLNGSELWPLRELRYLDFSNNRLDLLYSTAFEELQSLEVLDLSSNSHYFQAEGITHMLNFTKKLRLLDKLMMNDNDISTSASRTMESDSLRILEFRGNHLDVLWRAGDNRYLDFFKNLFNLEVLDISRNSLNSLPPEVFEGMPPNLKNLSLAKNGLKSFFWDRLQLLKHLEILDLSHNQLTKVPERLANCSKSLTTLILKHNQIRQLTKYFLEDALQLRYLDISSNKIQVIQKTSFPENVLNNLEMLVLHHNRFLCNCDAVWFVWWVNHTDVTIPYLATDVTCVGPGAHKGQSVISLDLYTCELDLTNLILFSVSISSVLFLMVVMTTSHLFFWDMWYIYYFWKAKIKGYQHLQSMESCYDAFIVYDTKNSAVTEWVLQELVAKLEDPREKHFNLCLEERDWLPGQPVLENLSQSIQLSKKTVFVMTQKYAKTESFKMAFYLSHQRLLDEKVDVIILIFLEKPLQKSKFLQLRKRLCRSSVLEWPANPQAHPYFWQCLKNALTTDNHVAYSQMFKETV
As to the kind of experiment: Inhibition of TLR7 expression in R848-stimulated mouse BMDC cells at 1 to 4 uM treated for 2 hrs followed by R848 stimulation for 12 hrs by western blot analysis. Type of data set: cell-based. As to conditions: dose 1-4 µM, time 14.0 hrs, DDE = dose-dependent effect.

In data set [14] the test system is Mus musculus. As to the kind of experiment: Anti-inflammatory activity in DSS-induced C57BL/6 mouse model of inflammatory bowel disease assessed as increase in colon length at 5 to 20 mg/kg, po daily measured after 10 days. The format is functional, organism-based. The following applies: dose 5-20 mg/kg, time 10.0 day.
Data set [15] can be described thus: Acute toxicity in 12 hr fasted ICR mouse assessed as effect on spleen at 2000 mg/kg, po measured after 7 days by hematoxylin and eosin staining based histopathological analysis. The format is organism-based. The following applies: in vivo, 168 h, time 7 day.
The target of data set [16] is MAP kinase p38 (Mus musculus) (UniProt P47811+O08911+Q9WUI1+Q9Z1B7). Briefly: Inhibition of P38 phosphorylation in R848-stimulated mouse BMDC cells at 1 to 4 uM treated for 2 hrs followed by R848 stimulation for 12 hrs by western blot analysis. As to conditions: dose 1-4 µM, time 14.0 hrs. The format is cell-based.
For data set [17], the system named is Mus musculus. Briefly: Anti-inflammatory activity in DSS-induced C57BL/6 mouse model of inflammatory bowel disease assessed as increase in IL-10 expression in colon tissue at 5 to 20 mg/kg, po measured after 10 days by western blot analysis. Type of data set: functional, organism-based. As to conditions: dose 5-20 mg/kg, time 10.0 day.
A short description of data set [18]: Acute toxicity in 12 hr fasted ICR mouse assessed as effect on lung at 2000 mg/kg, po measured after 7 days by hematoxylin and eosin staining based histopathological analysis. The format is organism-based. As to conditions: in vivo, 168 h, time 7 day.
The target of a further data set is CDK8/Cyclin C (Homo sapiens, UniProt P49336). Briefly: Inhibition of recombinant full length His tagged human CDK8/Cyclin C expressed in Baculovirus incubated for 60 mins in presence of ATP by ADP-Glo kinase assay. On the technique in general: In ADP-Glo the light output rises with the ADP produced.
Chain of CDK8/Cyclin C (P49336 whole entry): as the sequence (P49336 whole entry) above
Chain of CDK8/Cyclin C (P24863 whole entry, further chain): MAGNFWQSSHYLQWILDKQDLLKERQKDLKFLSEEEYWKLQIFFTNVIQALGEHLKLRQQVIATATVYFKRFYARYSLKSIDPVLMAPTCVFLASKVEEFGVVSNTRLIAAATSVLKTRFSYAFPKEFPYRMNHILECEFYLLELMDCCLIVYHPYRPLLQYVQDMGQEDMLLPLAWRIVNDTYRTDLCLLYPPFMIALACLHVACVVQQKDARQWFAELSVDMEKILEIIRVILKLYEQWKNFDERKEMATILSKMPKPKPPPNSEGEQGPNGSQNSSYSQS

SMILES strings stand for the structures. Calls of active or inactive are those of the source. The calls are words filed in the database; no cut-off is given here.

Consider `CCc1ccccc1NC(=O)c1cncc(-c2ccc(C(=O)N3CCNCC3)cc2)c1`, for which the result with Mus musculus [1], in the data set with Mus musculus [3], with Mus musculus [4], in the data set with Mus musculus [6], in the data set with Mus musculus [14] and in the data set on Mus musculus [17] was Active. Moreover, the Activity result in [2] was “Non-Toxic”; in data set [5], “Dde”; in the data set with Mus musculus [9], “Dde”; in the data set on Mus musculus [12], “Dde”; in [15] it was “Non-Toxic”; in [18], “Non-Toxic”. In addition, the inhibition entry in [7] and in data set [13] was “Dde” throughout. This compound displayed an AUC(0-inf) in data set [8] of 520 ng·h/mL. In data set [10], this compound showed a half-life of 2.18 h. In data set [11], the peak concentration (Cmax) was 528 ng/mL. For the same compound, the inhibition result in data set [16] was “Active”. The half-maximal inhibitory concentration (IC50) on CDK8/Cyclin C stood at 56 nM.

By AUC(0-inf) is commonly meant the area under the concentration-time curve extrapolated to infinity. Low values mean low exposure, high ones high exposure. For orientation: half-life means the time in which the quantity being followed falls by half. A low value points to fast loss. The Cmax is the highest concentration seen after dosing. Broadly, the IC50 is the point on the concentration scale where inhibition reaches its midpoint.

The record behind these values is ChEMBL document CHEMBL5154907, “Discovery and Anti-Inflammatory Activity Evaluation of a Novel CDK8 Inhibitor through Upregulation of IL-10 for the Treatment of Inflammatory Bowel Disease In Vivo” (J Med Chem, 2022).
